The source of these data is ChEMBL document CHEMBL1144757, “Stylopeptide 2, a proline-rich cyclodecapeptide from the sponge Stylotella sp” (2008).

One assay relates to BT-549. In words: Growth inhibition of human BT549 cells at 10 uM. The class given is functional.
The test system of a further assay is Hs-578T. The assay is described as follows: Growth inhibition of human HS578T cells at 10 uM. It counts as functional.

Structures are written as SMILES. Where a SMILES comes first, the peptide text is derived from it.

Consider `CC(C)C[C@@H]1NC(=O)[C@H]([C@@H](C)O)NC(=O)[C@@H]2CCCN2C(=O)[C@H](Cc2ccccc2)NC(=O)[C@@H]2CCCN2C(=O)[C@H](Cc2ccc(O)cc2)NC(=O)[C@@H]2CCCN2C(=O)[C@H](Cc2ccccc2)NC(=O)[C@@H]2CCCN2C(=O)[C@H](CC(C)C)NC1=O` [STYLOPEPTIDE 2] (cyclo(FPTLLPFPYP)), for which the inhibition (in general, how much of the control response was suppressed) at 10 µM with BT-549 is 77%; with Hs-578T, 56%.
